Broadly, the IC50 is the point on the concentration scale where inhibition reaches its midpoint.

The first test addresses T1, human CCR6 (Homo sapiens, UniProt P51684).
T1 construct: expressed in transfected cells; host or cells: HEK-293
T1 sequence (P51684 1-374): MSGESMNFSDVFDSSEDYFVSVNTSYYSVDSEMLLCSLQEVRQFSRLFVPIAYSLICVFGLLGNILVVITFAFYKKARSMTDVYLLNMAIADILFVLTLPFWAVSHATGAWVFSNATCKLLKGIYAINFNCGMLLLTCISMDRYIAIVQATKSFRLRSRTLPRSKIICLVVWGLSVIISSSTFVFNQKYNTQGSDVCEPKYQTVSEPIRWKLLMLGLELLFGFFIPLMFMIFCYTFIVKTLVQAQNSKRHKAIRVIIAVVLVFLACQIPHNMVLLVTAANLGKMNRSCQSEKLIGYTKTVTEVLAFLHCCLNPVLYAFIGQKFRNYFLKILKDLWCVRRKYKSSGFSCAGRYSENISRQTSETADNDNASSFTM
Put plainly: FLIPR assay (inhibition of CCL20-induced calcium signal). Conditions: FLIPR IC50 (nM), HEK-293 cells expressing human CCR6; mean values where determined several times. Format: cell-based. The method, boiled down: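 Dye-loaded HEK-293 cells expressing human CCR6 were preincubated with compound for 30 min at room temperature in the dark, then challenged with 10 nM CCL20 (final). Fluorescence was tracked on FLIPR, and baseline-subtracted peak emission over base after agonist addition gave inhibition dose-response curves for IC50.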
Turning to `CN1CC(C)(C(O)(c2ccc(C(C)(C)C)cc2)c2cncc(N3CCCC3)c2)C1` (centres unmarked) [Example 157], the IC50 is 27.7 nM.
As to `CC(C)c1ccc([C@](O)(c2cncc(N3C4CCC3CC4)c2)C2(C)CN(C)C2)cc1` [Example 177], the IC50 was 284 nM.

Still in this test, the particulars now being: HEK-293 cells expressing human CCR6; mean values where determined several times; read-out: FLIPR IC50.
On to `CN1CC(C)(C(O)(c2ccc(C3CCC3)cc2)c2cncc(N3CCCC3)c2)C1` (centres unmarked) [Example 154], for which the IC50 was 36.8 nM.
The same measure, in the same setting: as for `CN1CC(C)(C(O)(c2ccc(OC3CCC3)cc2)c2cncc(N3CCCC3)c2)C1` (centres unmarked) [Example 155], the figure is 28 nM.
On the same count and under the same terms, in the case of `CCOc1ccc(C(O)(c2cncc(N3CCCC3)c2)C2(C)CN(C)C2)cc1` (centres unmarked) [Example 156] it was 147 nM; in that of `CC(C)Oc1ccc(C(O)(c2cncc(N3CCCC3)c2)C2(C)CN(C)C2)cc1` (centres unmarked) [Example 158], 222 nM; in that of `CN1CC(C)(C(O)(c2ccc(C3(C(F)(F)F)CC3)cc2)c2cncc(N3CCCC3)c2)C1` (centres unmarked) [Example 159], 91.6 nM.
Same read-out and setting: as for `CN1CC(C)(C(O)(c2ccc(C3(C)CC3)cc2)c2cncc(N3CCCC3)c2)C1` (centres unmarked) [Example 160], the figure is 82.9 nM.
For `CN1CC(C)(C(O)(c2ccc(OC3CC3)cc2)c2cncc(N3CCCC3)c2)C1` (centres unmarked) [Example 161], the IC50 is 202 nM.
As for `CC(C)c1ccc([C@](O)(c2ccnc(N3CCC(F)(F)C3)c2)C2(C)CN(C)C2)cc1` [Example 162, (S)-[2-(3,3-Difluoro-pyrrolidin-1-yl)-pyridin-4-yl]-(1,3-dimethyl-azetidin-3-yl)-(4-isopropyl-phenyl)-methanol], the IC50 turned out to be 43.4 nM.
On the same count and under the same terms, in the case of `CC(C)c1ccc([C@](O)(c2ccnc(N3C[C@@H](F)[C@@H](F)C3)c2)C2(C)CN(C)C2)cc1` [Example 163, (S)-[2-((3R,4S)-3,4-Difluoro-pyrrolidin-1-yl)-pyridin-4-yl]-(1,3-dimethyl-azetidin-3-yl)-(4-isopropyl-phenyl)-methanol] it was 24.6 nM; in that of `CC(C)COc1cc([C@@](O)(c2ccc(C(C)C)cc2)C2(C)CN(C)C2)ccn1` [Example 164, (S)-(1,3-Dimethyl-azetidin-3-yl)-(2-isobutoxy-pyridin-4-yl)-(4-isopropyl-phenyl)-methanol], 18.9 nM; in that of `CC(C)c1ccc([C@](O)(c2ccnc(CCC(C)(C)O)c2)C2(C)CN(C)C2)cc1` [Example 165, 4-{4-[(S)-(1,3-Dimethyl-azetidin-3-yl)-hydroxy-(4-isopropyl-phenyl)-methyl]-pyridin-2-yl}-2-methyl-butan-2-ol], 677 nM.
As to `CC(C)c1ccc([C@](O)(c2cnnc(N3CCC(F)(F)C3)c2)C2(C)CN(C)C2)cc1` [Example 166, (R)-[6-(3,3-Difluoro-pyrrolidin-1-yl)-pyridazin-4-yl]-(1,3-dimethyl-azetidin-3-yl)-(4-isopropyl-phenyl)-methanol], the IC50 is 85.3 nM.
Still for that read-out and setting: as for `CC(C)c1ccc([C@](O)(c2cncc(N3CC[C@H](CO)C3)c2)C2(C)CN(C)C2)cc1` [Example 170], the figure is 133 nM.
Consider `CC(C)c1ccc([C@](O)(c2cncc(N3CCC(O)(C4CC4)C3)c2)C2(C)CN(C)C2)cc1` (some centres unmarked) [Example 173], for which the IC50 is 77.9 nM.
In the case of `CC(C)c1ccc([C@](O)(c2cncc(N3CCCCC3)c2)C2(C)CN(C)C2)cc1` [Example 176], the IC50 was 39.2 nM.
The same measure, in the same setting: in the case of `CC(C)c1ccc([C@](O)(c2cncc(N3CCC[C@@H]3C)c2)C2(C)CN(C)C2)cc1` [Example 178] it was 47.5 nM.
On the same count and under the same terms, in the case of `CC(C)c1ccc([C@](O)(c2cncc(N3CCC(O)(C(F)(F)F)C3)c2)C2(C)CN(C)C2)cc1` (some centres unmarked) [Example 179] it was 64.5 nM; in that of `CC(C)c1ccc([C@](O)(c2cncc(N3CCC(F)(F)C3)c2)C2(C)CN(C)C2)cc1` [Example 180], 55.7 nM.
Take `CC(C)c1ccc([C@](O)(c2cncc(N3CCC(O)CC3)c2)C2(C)CN(C)C2)cc1` [Example 181]: the half-maximal inhibitory concentration (IC50) was determined as 295 nM.
Still for that read-out and setting: in the case of `CC(C)c1ccc([C@](O)(c2cncc(N3CCCC(O)C3)c2)C2(C)CN(C)C2)cc1` (some centres unmarked) [Example 182] it was 86.5 nM; in that of `CC(C)c1ccc([C@](O)(c2cncc(N(C)CCOCc3ccccc3)c2)C2(C)CN(C)C2)cc1` [Example 183], 31.7 nM; in that of `CN1CC(C)([C@](O)(c2ccc(C3(C)CC3)cc2)c2cncc(N3CCCC3)c2)C1` [Example 184], 16.5 nM.
Still for that read-out and setting: as for `CN1CC(C)([C@](O)(c2ccc(C3(C(F)(F)F)CC3)cc2)c2cncc(N3C[C@@H](F)[C@@H](F)C3)c2)C1` [Example 185], the figure is 27.9 nM; as for `CN1CC(C)([C@](O)(c2ccc(C3(C(F)(F)F)CC3)cc2)c2cncc(N3CC[C@H](C(C)(C)O)C3)c2)C1` [Example 186], 43.5 nM; as for `CN1CC(C)([C@](O)(c2ccc(C3(C(F)(F)F)CC3)cc2)c2cncc(N3CCCC3)c2)C1` [Example 187], 15.8 nM.
On the same count and under the same terms, in the case of `CN1CC(C)([C@](O)(c2ccc(C(C)(C)C)cc2)c2cncc(N3CCCCC3)c2)C1` [Example 188] it was 23.4 nM.
Turning to `CC(C)c1ccc([C@](O)(c2cncc(-c3noc(C4CCN(S(=O)(=O)C5CC5)CC4)n3)c2)C2(C)CN(C)C2)cc1` [Example 190, (R)-{5-[5-(1-Cyclopropanesulfonyl-piperidin-4-yl)-[1,2,4]oxadiazol-3-yl]-pyridin-3-yl}-(1,3-dimethyl-azetidin-3-yl)-(4-isopropyl-phenyl)-methanol], the IC50 amounted to 38 nM.
On the same count and under the same terms, in the case of `CC(C)c1ccc([C@](O)(c2cncc(N(C)CCO)c2)C2(C)CN(C)C2)cc1` [Example 191, 2-({5-[(R)-(1,3-Dimethyl-azetidin-3-yl)-hydroxy-(4-isopropyl-phenyl)-methyl]-pyridin-3-yl}-methyl-amino)-ethanol] it was 317 nM.
Turning to `CC(C)c1ccc([C@](O)(c2cncc(N3CC(c4ccccc4)OC3=O)c2)C2(C)CN(C)C2)cc1` (some centres unmarked) [Example 194], the IC50 is 20.5 nM.
Turning to `CC(C)c1ccc([C@](O)(c2cncc(N3CC(Cc4ccccc4)OC3=O)c2)C2(C)CN(C)C2)cc1` (some centres unmarked) [Example 195], the IC50 is 29.3 nM.
On to `CC(C)c1ccc([C@](O)(c2cncc(N3CC(C(C)C)OC3=O)c2)C2(C)CN(C)C2)cc1` (some centres unmarked) [Example 196], for which the IC50 was determined as 67.6 nM.
The same measure, in the same setting: in the case of `CC(C)c1ccc([C@](O)(c2cncc(N3CC4(CC4)OC3=O)c2)C2(C)CN(C)C2)cc1` [Example 197] it was 106 nM.
On the same count and under the same terms, as for `CC(C)c1ccc([C@](O)(c2cncc(N3CC4(CCCC4)OC3=O)c2)C2(C)CN(C)C2)cc1` [Example 198], the figure is 70.8 nM; as for `CC(C)c1ccc([C@](O)(c2cncc(N3CC(C4CCOCC4)OC3=O)c2)C2(C)CN(C)C2)cc1` (some centres unmarked) [Example 199], 487 nM; as for `CC(C)c1ccc([C@](O)(c2cncc(N3CC(C)(C)OC3=O)c2)C2(C)CN(C)C2)cc1` [Example 200], 407 nM.
On the same count and under the same terms, in the case of `CC(C)c1ccc([C@](O)(c2cncc(N3CC4(CCC(F)(F)CC4)OC3=O)c2)C2(C)CN(C)C2)cc1` [Example 201] it was 159 nM; in that of `CC(C)c1ccc([C@](O)(c2cncc(N3CC4(CC5(CCC5)C4)OC3=O)c2)C2(C)CN(C)C2)cc1` [Example 202], 29.9 nM.
For `CC(C)c1ccc([C@](O)(c2cncc(N3CC4(CC(C5CC5)C4)OC3=O)c2)C2(C)CN(C)C2)cc1` (some centres unmarked) [Example 203], the half-inhibitory concentration (IC50) was found to be 64.9 nM.
Take `CC(C)c1ccc([C@](O)(c2cncc(N3CC4(CC(C)(C)C4)OC3=O)c2)C2(C)CN(C)C2)cc1` [Example 204]: the IC50 was 48.2 nM.
On the same count and under the same terms, as for `CC(C)c1ccc([C@](O)(c2cncc(N3CC(c4ccccc4)CC3=O)c2)C2(C)CN(C)C2)cc1` (some centres unmarked) [Example 205], the figure is 26.9 nM; as for `CC(C)c1ccc([C@](O)(c2cncc(N3CCC(C(C)C)C3=O)c2)C2(C)CN(C)C2)cc1` (some centres unmarked) [Example 208], 38.4 nM; as for `CC(C)c1ccc([C@](O)(c2cncc(N3CC(C)(C)CC3=O)c2)C2(C)CN(C)C2)cc1` [Example 209], 205 nM.
Still for that read-out and setting: as for `CC(C)c1ccc([C@](O)(c2cncc(N3CC4(CCCC4)CC3=O)c2)C2(C)CN(C)C2)cc1` [Example 211], the figure is 50.1 nM; as for `CC(C)c1ccc([C@](O)(c2cncc(N3CCC4(CCC4)C3=O)c2)C2(C)CN(C)C2)cc1` [Example 212], 70.8 nM; as for `CC(C)c1ccc([C@](O)(c2cncc(N3CC4(CCOCC4)CC3=O)c2)C2(C)CN(C)C2)cc1` [Example 213], 459 nM.
Take `CC(C)c1ccc([C@](O)(c2cncc(N3CCC(C4CCOCC4)C3=O)c2)C2(C)CN(C)C2)cc1` (some centres unmarked) [Example 214]: the IC50 turned out to be 184 nM.
Same read-out and setting: as for `CC(C)c1ccc([C@](O)(c2cncc(N3CCC4(CCCCC4)C3=O)c2)C2(C)CN(C)C2)cc1` [Example 215], the figure is 50.9 nM; as for `CC(C)c1ccc([C@](O)(c2cncc(N3CCC4(CCOCC4)C3=O)c2)C2(C)CN(C)C2)cc1` [Example 216], 476 nM; as for `CC(C)C[C@H]1CC(=O)N(c2cncc([C@@](O)(c3ccc(C(C)C)cc3)C3(C)CN(C)C3)c2)C1` [Example 217], 43.3 nM.
Still for that read-out and setting: in the case of `CC(C)c1ccc([C@](O)(c2cncc(N3CC(C4CC4)CC3=O)c2)C2(C)CN(C)C2)cc1` (some centres unmarked) [Example 218] it was 60.4 nM.
Still for that read-out and setting: as for `CC(C)c1ccc([C@](O)(c2cncc(N3CC(C(F)(F)F)CC3=O)c2)C2(C)CN(C)C2)cc1` (some centres unmarked) [Example 219], the figure is 135 nM.
